Experimental findings from PubChem BioAssay AID652247 (Sanford-Burnham Center for Chemical Genomics, 2013) are described below.

The target of the assay is NEDD8-conjugating enzyme Ubc12 (Homo sapiens) + NEDD8-activating enzyme E1 regulatory subunit (Homo sapiens) (UniProt P61081+Q13564). The experiment in a line: NEDD8 conjugation to CUL1 blockade – biochemical, TR-FRET, dose response (AID 652247). As to conditions: in vitro CUL1 neddylation.

Calls of active or inactive are those of the source. How the calls were made is not given here.

Chain of NEDD8-conjugating enzyme Ubc12 (Homo sapiens) + NEDD8-activating enzyme E1 regulatory subunit (Homo sapiens) (P61081 whole entry, looked up): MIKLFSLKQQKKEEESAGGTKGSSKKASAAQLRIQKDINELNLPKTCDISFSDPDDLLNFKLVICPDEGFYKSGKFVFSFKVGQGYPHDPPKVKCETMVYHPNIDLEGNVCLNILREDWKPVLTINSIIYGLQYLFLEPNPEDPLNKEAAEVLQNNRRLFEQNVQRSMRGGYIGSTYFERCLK
Chain of NEDD8-conjugating enzyme Ubc12 (Homo sapiens) + NEDD8-activating enzyme E1 regulatory subunit (Homo sapiens) (Q13564 whole entry, looked up): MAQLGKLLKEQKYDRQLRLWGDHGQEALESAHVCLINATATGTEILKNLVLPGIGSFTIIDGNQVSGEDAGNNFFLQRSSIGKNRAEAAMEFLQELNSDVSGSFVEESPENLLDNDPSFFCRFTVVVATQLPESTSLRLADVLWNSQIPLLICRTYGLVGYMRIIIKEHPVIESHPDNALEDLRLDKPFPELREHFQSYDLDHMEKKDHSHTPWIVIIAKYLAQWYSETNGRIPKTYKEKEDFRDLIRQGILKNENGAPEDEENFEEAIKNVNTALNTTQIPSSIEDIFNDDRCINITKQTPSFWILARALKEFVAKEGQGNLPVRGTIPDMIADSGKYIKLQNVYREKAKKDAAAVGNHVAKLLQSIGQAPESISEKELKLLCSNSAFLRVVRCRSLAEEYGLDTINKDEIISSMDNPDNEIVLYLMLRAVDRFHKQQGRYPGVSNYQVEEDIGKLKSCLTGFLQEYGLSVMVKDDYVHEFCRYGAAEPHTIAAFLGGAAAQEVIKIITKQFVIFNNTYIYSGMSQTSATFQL

For orientation: IC50 means the midpoint of a concentration-inhibition curve. For `COc1cc(OC)cc(-c2oc3cccnc3c2C#CCCO)c1`, the IC50 entry is “inactive”.

Turning to `CCOC(=O)C1CCCN(c2nc3ccccc3nc2NS(=O)(=O)c2ccc(C)cc2)C1` (stereo not given), the IC50 entry is “inactive”.

For `COC(=O)c1ccc(/C=C2\CCn3c2nc2cc(C(=O)O)ccc2c3=O)cc1`, the IC50 result is “inactive”.

As for `CCOc1ccccc1NC(=O)CN1c2cccc3cccc(c23)S1(=O)=O`, the IC50 entry is “inactive”.

Take `COCCNC(=O)CSc1ccc(-c2nc3ccccc3[nH]2)cn1`: the IC50 entry was “inactive”.

As to `CCCCn1c(O)c(/C=N/NC(=O)c2ccncc2)c(=O)[nH]c1=S`, the IC50 result was “inactive”.

Regarding `O=C(CN1c2cccc3cccc(c23)S1(=O)=O)NCc1ccc(F)cc1`, the IC50 entry is “inactive”.

Consider `COc1ccc(-c2cc3ccc(OCc4nn[nH]n4)cc3oc2=O)cc1OC`, for which the IC50 was 6.88 µM.

`COc1ccc(C(C(=O)NCC2CCCO2)N(C(=O)c2snc(C(N)=O)c2N)c2ccccc2)cc1OC` (stereo not given): the IC50 entry is “inactive”.

Regarding `CCOc1ccc(C(=O)N/N=C/c2ccc(-c3ccc(S(=O)(=O)Nc4ncccn4)cc3)o2)cc1`, the IC50 result was “inactive”.

Turning to `COc1cc(-c2cc(C(=O)N3CCCCCC3)c3ccccc3n2)cc(OC)c1OC`, the IC50 entry was “inactive”.

In the case of `CCOc1ccc2[nH]c(C(=O)N/N=C/c3cccc(OC)c3OC)cc2c1`, the IC50 result is “inactive”.

As for `COc1ccc(OCC(=O)N/N=C/c2ccc(N(C)C)cc2)cc1`, the IC50 entry was “inactive”.

Take `C[n+]1ccc(-c2ccccc2)c2ccccc21`: the IC50 is > 100 µM (inactive).

`O=C(O)Cn1c(=O)c(-c2ccccc2)nc2ccccc21`: the IC50 entry was “inactive”.
